We go through 1 compound from EPA's ToxValDB 9.5 (doi:10.2903/j.efsa.2011.2417).

By NOAEL is commonly meant the highest dose or exposure tested at which no adverse effect was seen.

For one series, the system named is Anas platyrhynchos. To be noted: short-term; oral; feed; mortality.
For another series, the system named is Rattus norvegicus. The conditions noted are these: chronic; duration: 2 years; organ weight.
A further series relates to Typhlodromus pyri. The conditions noted are these: not reported; mortality.
The next series relates to Apis mellifera. To be noted: acute; duration: 48 hours; oral; unspecified; mortality.
In the next series the test system is Daphnia magna. To be noted: chronic/long-term; duration: 21 days; reproduction.
The test system of a further series is Colinus virginianus. The conditions noted are these: mortality.
For the next series, the system named is Canidae. The conditions noted are these: oral, Dog Other, hematological.
A further series concerns Tagia sp. To be noted: acute; mortality.

In brackets after ≈: the same amount, converted by molar mass.

On to `CCSC(C)CC1CC(=O)C(C(CC)=NOC/C=C/Cl)=C(O)C1` (configuration not stated) [Clethodim], for which the LC50 is more than 851 mg/kg-day in the series with Anas platyrhynchos; 25 mg/L (≈ 69.5 µM) in the series with Oncorhynchus mykiss (acute, duration: 96 hours, mortality); 129 mg/kg in the series on Tagia sp.. Besides, the NOEC in the series with Oncorhynchus mykiss (chronic/long-term, duration: 21 days) was 3.9 mg/L; with Daphnia magna, 49 mg/L. Moreover, the NOAEL worked out at 16 mg/kg-day in the series on Rattus norvegicus; 21 mg/kg-day with Canidae (chronic, duration: 1 years); 21 mg/kg-day in the series with Canidae (subchronic, duration: 90 days). In addition, the LEL in the series on Typhlodromus pyri came to 9.6 g/ha. Besides, the LD50 is more than 43 µg/piece in the series on Apis mellifera and more than 1640 mg/kg in the series with Colinus virginianus (acute, oral). The compound further yielded an NOEL with Colinus virginianus (reproduction developmental) of 17 mg/kg-day.
